Measured values published in the supplement of paper PMC10307832.

Experiments:
Assay in all cases: relative viability (nuclei count vs DMSO), 5 days (fraction); higher = more cells survive
CX-5461 + Pemetrexed = compound: Cc1cnc(CNC(=O)c2c(=O)c3ccc(N4CCCN(C)CC4)nc3n3c2sc2ccccc23)cn1 [CX-5461] + Nc1nc2[nH]cc(CCc3ccc(C(=O)N[C@@H](CCC(=O)O)C(=O)O)cc3)c2c(=O)[nH]1 [Pemetrexed] (partner 0.2 µM)
Procedure, shortened: (§1)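 Lung cancer cell lines were pin-tool dosed in 1536-well plates on the day after seeding, with either a lone drug or a fixed anchor-drug dose plus five library-drug doses (not always all listed) in √10 steps. Nuclei were counted on 4× images after 5 days. Relative viability is the ratio of treated-well to vehicle-well nuclei counts, with each value a median of duplicate plates.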

IMD-0354 + OSI-027 = compound: O=C(Nc1cc(C(F)(F)F)cc(C(F)(F)F)c1)c1cc(Cl)ccc1O [IMD-0354] + COc1cccc2cc(-c3nc([C@H]4CC[C@H](C(=O)O)CC4)n4ncnc(N)c34)[nH]c12 [OSI-027] (partner 0.5 µM)
Procedure, shortened: as §1

CX-5461 + Luminespib = compound: Cc1cnc(CNC(=O)c2c(=O)c3ccc(N4CCCN(C)CC4)nc3n3c2sc2ccccc23)cn1 [CX-5461] + CCNC(=O)c1noc(-c2cc(C(C)C)c(O)cc2O)c1-c1ccc(CN2CCOCC2)cc1 [Luminespib] (partner 0.01 µM)
Procedure, shortened: as §1

CX-5461 + Crizotinib = compound: Cc1cnc(CNC(=O)c2c(=O)c3ccc(N4CCCN(C)CC4)nc3n3c2sc2ccccc23)cn1 [CX-5461] + C[C@@H](Oc1cc(-c2cnn(C3CCNCC3)c2)cnc1N)c1c(Cl)ccc(F)c1Cl [Crizotinib] (partner 1 µM)
Procedure, shortened: as §1

Row | Cell Line | relative viability (CX-5461 + Pemetrexed; first compound 0.01 µM) | relative viability (CX-5461 + Pemetrexed; first compound 0.03162 µM) | relative viability (CX-5461 + Pemetrexed; first compound 0.1 µM) | relative viability (CX-5461 + Pemetrexed; first compound 0.3162 µM) | relative viability (CX-5461 + Pemetrexed; first compound 1 µM) | relative viability (IMD-0354 + OSI-027; first compound 0.04 µM) | relative viability (IMD-0354 + OSI-027; first compound 0.1265 µM) | relative viability (IMD-0354 + OSI-027; first compound 0.4 µM) | relative viability (IMD-0354 + OSI-027; first compound 1.265 µM) | relative viability (IMD-0354 + OSI-027; first compound 4 µM) | relative viability (CX-5461 + Luminespib; first compound 0.01 µM) | relative viability (CX-5461 + Luminespib; first compound 0.03162 µM) | relative viability (CX-5461 + Luminespib; first compound 0.1 µM) | relative viability (CX-5461 + Luminespib; first compound 0.3162 µM) | relative viability (CX-5461 + Luminespib; first compound 1 µM) | relative viability (CX-5461 + Crizotinib; first compound 0.01 µM) | relative viability (CX-5461 + Crizotinib; first compound 0.03162 µM) | relative viability (CX-5461 + Crizotinib; first compound 0.1 µM) | relative viability (CX-5461 + Crizotinib; first compound 1 µM) | relative viability (CX-5461 + Crizotinib; first compound 0.3162 µM)
1 | NCI-H322M | 0.568 | 0.558 | 0.708 | 0.567 | 0.62 | 0.612 | 0.493 | 0.427 | 0.285 | 0.33 | 1.08 | 0.799 | 0.798 | 0.469 | 0.402 | 0.924 | 1.06 | 0.79 | 0.877 | 
2 | NCI-H358 | 0.159 | 0.157 | 0.165 | 0.173 | 0.156 | 0.676 | 0.826 | 0.403 | 0.124 | 0.141 | 0.317 | 0.42 | 0.327 | 0.358 | 0.371 | 0.524 | 0.57 | 0.365 | 0.174 | 0.26
3 | NCI-H441 | 0.261 | 0.268 | 0.241 | 0.242 | 0.226 | 0.593 | 0.604 | 0.329 | 0.169 | 0.231 | 0.322 | 0.421 | 0.323 | 0.444 | 0.239 | 0.642 | 0.719 | 0.867 | 0.509 | 0.673
4 | NCI-H460 | 0.0543 | 0.0602 | 0.0575 | 0.0623 | 0.0755 | 0.886 | 0.626 | 0.225 | 0.0286 | 0.0262 | 0.0291 | 0.0347 |  | 0.041 | 0.0205 | 1.03 | 1.06 | 0.077 | 0.0138 | 0.567
5 | NCI-H520 | 0.719 | 0.725 | 0.708 | 0.608 | 0.484 | 0.297 | 0.27 | 0.194 | 0.283 | 0.129 | 0.195 | 0.194 | 0.202 | 0.262 | 0.218 | 0.736 | 0.925 | 0.777 | 0.531 | 0.336
6 | NCI-H596 | 0.47 | 0.45 | 0.523 | 0.504 | 0.48 | 0.881 | 0.812 | 0.429 | 0.793 | 0.246 | 1.07 | 0.912 | 1.17 | 1.12 | 1.12 | 0.981 | 0.972 | 0.973 | 0.907 | 1.19
7 | NCI-H647 | 0.186 | 0.165 | 0.176 | 0.194 | 0.158 | 0.836 | 0.599 | 0.367 | 0.364 | 0.0879 | 0.192 | 0.163 | 0.169 | 0.146 | 0.108 | 1.02 | 1.18 | 1.05 | 0.401 | 1.06
8 | NCI-H650 | 1.05 | 0.986 | 0.879 | 0.943 | 0.873 | 0.591 | 0.498 | 0.447 | 0.29 | 0.177 | 0.767 | 0.743 | 0.799 | 0.711 | 0.364 | 0.666 | 0.961 | 0.668 | 0.631 | 0.309
9 | NCI-H661 | 0.928 | 0.902 | 0.855 | 0.802 | 0.722 | 0.812 | 0.66 | 0.577 | 0.264 | 0.25 | 0.928 | 0.879 | 0.792 | 0.575 | 0.433 | 1.01 | 1.08 | 1.02 | 0.944 | 0.615
10 | NCI-H838 | 0.251 | 0.248 | 0.244 | 0.232 | 0.241 | 0.422 | 0.334 | 0.294 | 0.209 | 0.211 | 0.299 | 0.301 | 0.36 |  | 0.179 | 0.973 | 0.87 | 0.843 | 0.641 | 0.347
11 | NCI-H1355 | 1.08 | 1.08 | 1.03 | 1.02 | 0.853 | 0.382 | 0.45 | 0.372 | 0.258 | 0.234 | 0.843 | 0.728 | 0.753 | 0.706 | 0.814 | 1.06 | 1.24 | 1.04 | 1.09 | 1.07
12 | NCI-H1437 | 0.31 | 0.307 | 0.268 | 0.307 | 0.29 | 0.915 | 0.763 | 0.544 | 0.22 | 0.25 | 1.15 | 1.2 |  | 1.08 | 0.966 | 1 | 0.948 |  | 0.791 | 0.885
13 | NCI-H1563 | 0.81 | 0.747 | 0.908 | 0.687 | 0.651 | 0.775 | 0.769 | 0.66 | 0.297 | 0.413 | 0.47 | 0.595 | 0.438 | 0.565 | 0.498 | 0.865 | 0.725 | 0.774 | 0.464 | 0.675
14 | NCI-H1650 | 0.377 | 0.477 | 0.336 | 0.35 | 0.241 | 0.704 | 0.491 | 0.362 | 0.189 | 0.259 | 0.181 | 0.161 | 0.211 | 0.215 | 0.193 | 1.08 | 0.996 |  | 0.149 | 0.948
15 | NCI-H1651 | 0.551 | 0.6 | 0.546 | 0.623 | 0.18 | 0.667 | 0.667 | 0.495 | 0.199 | 0.0772 | 0.827 | 0.682 |  | 0.603 | 0.171 | 0.829 | 0.862 | 0.76 | 0.812 | 0.967
16 | NCI-H1666 | 0.854 | 0.848 | 1.01 | 0.828 | 0.769 | 0.86 | 0.841 | 0.641 | 0.415 | 0.302 | 0.938 | 0.93 | 0.922 | 1.01 | 0.775 | 1.03 | 0.838 |  | 0.618 | 1
17 | NCI-H1734 | 0.404 | 0.435 | 0.419 | 0.39 | 0.432 | 0.625 | 0.662 | 0.44 | 0.281 | 0.137 | 0.182 | 0.148 | 0.193 | 0.173 | 0.157 | 0.666 | 0.82 | 0.742 | 0.623 | 0.536
18 | NCI-H1755 | 0.389 | 0.507 | 0.427 | 0.399 | 0.488 | 0.65 | 0.782 | 0.528 | 0.354 | 0.302 | 0.383 | 0.357 | 0.482 | 0.402 | 0.512 | 0.921 | 0.937 | 0.895 | 0.833 | 0.842
19 | NCI-H1792 | 0.897 | 0.929 | 0.964 | 1.02 | 0.296 | 0.791 | 0.701 | 0.35 | 0.394 | 0.418 | 0.57 | 0.48 | 0.432 | 0.458 | 0.497 | 0.957 | 0.979 | 0.949 | 0.913 | 0.978
20 | NCI-H1915 | 0.536 | 0.509 | 0.487 | 0.496 | 0.495 | 0.589 | 0.629 | 0.107 | 0.241 | 0.155 | 0.857 | 0.852 | 0.813 | 0.923 | 0.783 | 0.937 | 0.934 | 0.892 | 0.902 | 0.888
21 | NCI-H1944 | 0.561 | 0.653 | 0.531 | 0.451 | 0.271 | 0.441 | 0.445 | 0.375 | 0.317 | 0.161 | 0.854 | 0.711 | 0.864 | 0.51 | 0.672 | 1.16 | 1.38 | 1.18 | 1.05 | 
22 | NCI-H1975 | 0.286 | 0.296 | 0.274 | 0.331 | 0.264 | 0.917 | 0.6 | 0.402 | 0.205 | 0.155 | 0.353 | 0.249 | 0.43 | 0.191 | 0.202 | 1.13 | 0.986 | 0.821 | 0.462 | 1.08
23 | NCI-H1993 | 0.529 | 0.67 | 0.582 | 0.587 | 0.625 | 0.576 | 0.504 | 0.562 | 0.522 | 0.482 | 0.869 | 0.935 | 0.861 | 0.724 | 0.907 | 0.972 | 0.819 | 0.862 | 0.825 | 0.822
24 | NCI-H2009 | 1.01 | 1.07 | 0.964 | 1.01 | 0.826 | 0.703 | 0.564 | 0.416 | 0.133 | 0.109 | 1.08 | 1.02 | 0.887 | 0.985 | 0.508 | 1.07 | 1.02 | 1.09 | 0.697 | 1.02
25 | NCI-H2023 | 0.218 | 0.246 |  | 0.19 | 0.111 | 0.484 | 0.382 | 0.274 | 0.105 | 0.108 | 0.675 | 0.318 |  | 0.314 | 0.0698 | 0.584 | 0.558 |  | 0.0858 | 0.391
26 | NCI-H2085 | 1.03 | 0.907 | 0.88 | 0.989 | 0.799 | 0.773 | 0.78 | 0.522 | 0.362 | 0.212 | 0.488 | 0.404 | 0.32 | 0.567 | 0.405 | 0.908 | 0.951 | 0.833 | 0.555 | 0.785
27 | NCI-H2087 | 0.689 | 0.657 | 0.684 | 0.712 | 0.654 | 0.496 | 0.646 | 0.189 | 0.119 | 0.112 | 0.184 | 0.166 | 0.15 | 0.158 | 0.178 | 0.989 | 0.969 | 0.874 | 0.593 | 0.813
